PubChem BioAssay (NCI)
Values joined by “and” are separate entries in the source; they are usually repeats but may differ in a detail not shown here. Identical values can stand only once.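 Where inhibition never reached the appropriate level, the endpoint shown equals the highest concentration tested. Otherwise, values were interpolated linearly from a five-concentration, 48-hour dose response in 96-well plates. GI50 = concentration required for 50% inhibition of growth. TGI: total growth inhibition.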

How the values were obtained:
Assay in all cases: NCI anticancer screen, dose series, 48 h
[1] = system: A498 renal
[2] = system: KM12 colon
[3] = system: MDA-MB-231 breast
[4] = system: NCI-H460 lung
[5] = system: NCI/ADR-RES ovarian
[6] = system: OVCAR-4 ovarian
[7] = system: SNB-75 CNS
[8] = system: T-47D breast
[9] = system: U251 CNS
[10] = system: UACC-257 melanoma
[11] = system: SNB-19 CNS

Structure (SMILES) | TGI [1] [µM] | TGI [2] [µM] | TGI [3] [µM] | TGI [4] [µM] | TGI [5] [µM] | TGI [6] [µM] | TGI [7] | TGI [8] [µM] | TGI [9] [µM] | TGI [10] [µM] | TGI [11] [µM] | GI50 [2] | GI50 [3] | GI50 [4] | GI50 [5] [µM] | GI50 [11] | GI50 [7] | GI50 [8] | GI50 [9]
CN(CCCn1ccnc1[N+](=O)[O-])CCCn1ccnc1[N+](=O)[O-] | > 100 | > 100 | > 100 | > 100 | > 100 | > 100 | > 100 µM | > 100 | > 100 | > 100 | – | – | – | – | – | – | – | – | –
CCO/C(Cc1ccc(Cl)cc1)=N/NC(N)=S | > 100 | > 100 | > 100 | > 100 | > 100 | > 100 | > 100 µM | > 100 | > 100 | > 100 | > 100 | – | – | – | – | – | – | – | –
CCCCOC(=O)c1cc(C(=CCC[C@H]2CC[C@@]3(C)[C@@H](CC[C@@H]4[C@@H]3CC[C@]3(C)[C@@H](C(C)CCCC(C)C)CC[C@@H]43)C2)c2cc(Cl)c(O)c(C(=O)OCCCC)c2)cc(Cl)c1O (stereo partly specified) | > 50 | > 50 | > 50 | > 50 | > 50 | > 50 | > 50 µM | > 50 | > 50 | – | > 50 | – | – | – | – | – | – | – | –
Cn1c(N=P(c2ccccc2)(c2ccccc2)c2ccccc2)c([N+](=O)[O-])c(=O)n(C)c1=O | > 100 | 80.4 | > 100 | > 100 | > 100 | > 100 | 91.8 µM | > 100 | > 100 | > 100 | > 100 | – | – | – | – | – | – | – | –
COC(=O)C1=NN2c3ccccc3CN([C@@H](C)c3ccccc3)C(=O)[C@@H]2[C@H]1c1ccccc1 | > 100 | > 100 | > 100 | > 100 | > 100 | > 100 | > 100 µM | > 100 | > 100 | > 100 | > 100 | – | – | – | – | – | – | – | –
Cc1ccc(N=C2C(c3ccccc3)=C(SC3=C(c4ccccc4)C(=Nc4ccc(C)cc4)c4ccccc43)c3ccccc32)cc1 | 33.5 | > 100 | 38.7 | 36.3 | > 100 | 17.2 | 22.2 µM | > 100 | > 53.5 | > 100 | 17.1 | – | – | – | – | – | – | – | –
Cc1csc(NNC(=O)Nc2ccccc2)n1 | > 100 | > 100 | > 100 | > 100 | > 100 | > 100 | > 100 µM | > 100 | > 100 | > 100 | > 100 | – | – | – | – | – | – | – | –
C=CC1(C)OC2(CCN(C(=O)OCC)CC2)OC1C (stereo unspecified) | > 100 | > 100 | > 100 | > 100 | > 100 | > 100 | > 100 µM | > 100 | > 100 | > 100 | > 100 | – | – | – | – | – | – | – | –
COc1cccc(/C=C\c2ccc(O)cc2)c1 | 69.8 | 33.3 | > 100 | > 67.3 | 31.7 | > 100 | 70.2 µM | > 84.2 | > 57.5 | > 100 | > 100 | – | – | – | – | – | – | – | –
CC(O)[C@@]1(c2ccccc2)CC2(CCN(C)CC2)O[C@H]1C (stereo partly specified) | > 100 | > 100 | > 100 | > 100 | > 100 | > 100 | > 100 µM | 98 | > 100 | > 100 | > 100 | – | – | – | – | – | – | – | –
c1ccc([P+](CCCCCC[P+](c2ccccc2)(c2ccccc2)c2ccccc2)(c2ccccc2)c2ccccc2)cc1 | > 100 | 63.2 | > 100 | > 100 | > 100 | > 100 | > 100 µM | > 100 | > 100 | 8.64 | > 100 | – | – | – | – | – | – | – | –
COc1ccc(/C=C/C(=O)c2ccc(OC(=O)/C=C/c3ccccc3)cc2)cc1 | > 73.4 | 26.4 | > 87.2 | 97.8 | > 100 | 92.8 | > 82.2 µM | 62.8 | > 100 | > 100 | > 63.4 | – | – | – | – | – | – | – | –
O=c1oc2ccc3ccccc3c2cc1-c1nc2ccc([N+](=O)[O-])cc2o1 | > 88.4 | > 100 | > 100 | > 100 | > 100 | > 100 | > 100 µM | > 100 | > 100 | > 100 | > 28.6 | – | – | – | – | – | – | – | –
O=c1c2c(F)c(F)c(F)c(F)c2sc2nccn12 | 35.1 | 32.2 | 35.9 | 27.3 | 93.3 | 35.8 | 50.4 µM | 24.2 | 29.2 | 45.5 | 35.9 | – | – | – | – | – | – | – | –
CCCCc1ccc(C#CC#Cc2ccc(CCCC)s2)s1 | > 100 | > 100 | > 100 | > 100 | > 100 | > 100 | > 100 µM | > 100 | > 100 | > 100 | – | – | – | – | – | – | – | – | –
COc1cc2c[n+](C)c3c4cc(OC)c(OC)cc4ccc3c2cc1OC | > 100 | > 100 | > 100 | > 100 | > 100 | > 100 | > 100 µM and 98.9 µM | > 100 | > 100 | > 100 | > 100 | > 100 µM and 33.3 µM | > 100 µM and 18.6 µM | > 100 µM and 49.8 µM | > 100 | 80 µM and 13.5 µM | > 100 µM and 31.6 µM | > 100 µM and 10.1 µM | 14.3 µM and 7.05 µM
